Reference: BindingDB's records for doi:10.7270/Q2BV7F7H (Burnham Center For Chemical Genomics, 2012)
Several values for one entry are separate records, joined by “and”; a condition that tells them apart may be missing. Equal entries are not always repeated.

Target: Probable nicotinate-nucleotide adenylyltransferase (Staphylococcus aureus (strain N315), UniProt P65502)

IC50 | SMILES
56.8 µM | O=C1C(=O)N(c2nc3ccc(Cl)cc3s2)C(c2ccco2)C1C(=O)c1ccco1 (centres undefined)
15.6 µM | CCOc1ccc(CN=Nc2ccc(S(=O)(=O)Nc3ccccc3C(=O)O)cc2[N+](=O)[O-])cc1
27.7 µM | O=C(O)Cc1sc(N=NCc2ccccc2)nc1-c1ccccc1
50 µM | C1=NC2CCCC2C(N2CCCC2)=C1 (centres undefined)
80 µM | Cc1ccccc1COc1ccc(C(=O)C2C(=O)C(=O)N(CCCn3ccnc3)C2c2ccco2)cc1 (centres undefined)
26.7 µM and 21.4 µM | Cc1ccc(Nc2nnc(SCC(=O)C(C#N)c3nc4ccccc4[nH]3)s2)c(C)c1 (centres undefined) [2-(1,3-dihydrobenzimidazol-2-ylidene)-4-[[5-(2,4-dimethylanilino)-1,3,4-thiadiazol-2-yl]thio]-3-oxobutanenitrile]
15.1 µM | Cc1ccc(-n2[nH]c(C)c(C(c3cccc(O)c3)c3c(C)[nH]n(-c4ccc(C)c(C)c4)c3=O)c2=O)cc1C [2-(3,4-dimethylphenyl)-4-[[1-(3,4-dimethylphenyl)-5-hydroxy-3-methyl-1H-pyrazol-4-yl](3-hydroxyphenyl)methyl]-5-methyl-2,4-dihydro-3H-pyrazol-3-one]
23.2 µM | N#CC1C(=S)N=C(N)C(c2nc(-c3ccccc3)cs2)C12CCCCC2 (centres undefined) [2-amino-4-mercapto-1-(4-phenyl-2-thiazolyl)-3-azaspiro[5.5]undeca-2,4-diene-5-carbonitrile]
28.9 µM | Cc1cc(N2C(=O)C(=O)C(C(=O)c3ccc(C)o3)C2c2ccc(OCc3ccccc3)cc2)no1 (centres undefined) [3-(5-methylfuran-2-yl)carbonyl-1-(5-methyl-1,2-oxazol-3-yl)-4-oxidanyl-2-(4-phenylmethoxyphenyl)-2H-pyrrol-5-one]
19.1 µM | N#CC1C(=S)N=C(N)C(c2nc(-c3ccccc3)cs2)C12CCCC2 (centres undefined) [7-amino-9-mercapto-6-(4-phenyl-2-thiazolyl)-8-azaspiro[4.5]deca-7,9-diene-10-carbonitrile]
25.2 µM | Cc1cccc(C)c1Nc1nnc(SCC(=O)C(C#N)c2nc3ccccc3[nH]2)s1 (centres undefined) [MLS000392242]
29.7 µM | CCc1nnc(NS(=O)(=O)c2ccc(N=CCC(=O)c3ccc4ccccc4c3)cc2)s1 [N-(5-Ethyl-[1,3,4]thiadiazol-2-yl)-4-(3-naphthalen-2-yl-3-oxo-propenylamino)-benzenesulfonamide]
14.8 µM | CC(=NNC(=O)c1cccc(N=NC(C)c2ccco2)c1)c1ccco1 (centres undefined) [N-[1-(2-furanyl)ethylideneamino]-3-[2-[1-(2-furanyl)ethylidene]hydrazinyl]benzamide]
77.7 µM | Cc1ccc(-n2c(O)cc(N(CCc3ccccc3)C(=S)Nc3ccc(N(C)C)cc3)c2O)cc1 [SMR000159829]
21.1 µM | Cc1[nH]n(-c2ccc(Cl)cc2)c(=O)c1C(c1ccccc1O)c1c(C)[nH]n(-c2ccc(Cl)cc2)c1=O [SMR000171531]
25.5 µM | COc1cccc(OCc2cc(CN=Nc3ccc(C(=O)O)cc3)ccc2OC)c1 [SMR000415960]
12 µM | Nc1ccccc1C(=O)NNC(=O)C(=O)CC(=O)c1ccccc1 [SMR000427706]
34.5 µM | C#CCN(C[C@@H]1c2c(c(O)n(-c3ccccc3)c2O)C[C@@H](OC(=O)Nc2cccs2)[C@H]1OC(=O)Nc1cccs1)S(=O)(=O)c1ccc(C)cc1 [[(3aR,5R,6S,7S,7aS)-7-[[(4-methylphenyl)sulfonyl-prop-2-ynyl-amino]methyl]-1,3-bis(oxidanylidene)-2-phenyl-6-(thiophen-2-ylcarbamoyloxy)-3a,4,5,6,7,7a-hexahydroisoindol-5-yl] N-thiophen-2-ylcarbamate]
45.9 µM | CCOC(=O)c1ccccc1-n1c(O)c2c(c1O)C(C=Cc1ccccc1)c1sc(=O)[nH]c1S2 (centres undefined) [ethyl 2-[2,5,7-trioxo-8-[(E)-2-phenylethenyl]-3,4a,7a,8-tetrahydropyrrolo[2,3]thiopyrano[4,5-b][1,3]thiazol-6-yl]benzoate]
